The source of these data is patent publication US12178838B2, “Synthetic neuromodulatory peptides” (Lactocore, Inc., priority 2019, dated 2024).

Type in all cases: in vivo
The subject of data set [1] is zebrafish (Danio rerio). Put plainly: Light/dark box test in zebrafish. The settings on record: ip. As for the experimental part:
The tested substances were injected into the zebrafish intraperitoneally (ip) using an insulin syringe (0.5 ml, 30 g) 10 minutes before the test. The saline solution (0.9% NaCl) was used as a solvent. Anesthesia and immobilization of the animals were achieved by placing them in water at a temperature of 10° C. Control group fish received intraperitoneal injections of an equivalent volume of solvent, also after going through a pre-cooling procedure.
A base, back, and side walls of the aquarium were made of matte black plastic; the front panel (shorter wall) was made of transparent Plexiglas. The setup for the Light/Dark preference test consisted of three main parts: a launch compartment, a light compartment made of white plastic, and a dark compartment made of black plastic. The bright lighting in these tests was provided by a lamp on a stand (LED lamp PL, 11 W, light flux≈600 Lm, about 500 Lx directly above the water surface), which was attached to the upper part of the aquarium.
The light/dark box (LDB) test was performed as described in Maximino et al., 2011. The zebrafish was placed in a light compartment of an LDB using a net, the camera was switched on simultaneously, and the behavior of the zebrafish was recorded for 5 minutes. The video was processed using RealTimer (OpenScience). During the processing of records, the residence time and the number of visits to the light and dark compartments of the test setup were recorded, as well as the latent period of visiting both compartments.

The test system of data set [2] is BALB/C mice. Put plainly: Open Field test in mice. The settings on record: Diazepam 0.75 mg/kg. Here is the method: After an adaptation period, the test substance was intraperitoneally injected into mice. Behavioral parameters were measured in 30 minutes after injection. The tests were administered as follows: day 1—the Open field test, day 3—the Elevated plus maze test, day 5—the Marble burying test, days 12-13—the Porsolt swim (two-day modification) test.
In the Open field test, the installation is an arena with a diameter of 63 cm, illuminated by bright light (500 lux) (OpenScience, Russia). The following parameters were measured during 5-minute experiment: a total distance (cm), a time of motion (if the speed is more than 5 cm/s), an immobility (if the speed is less than 0.2 cm/sec), a mean and maximum velocity, and a number of episodes of motor activity and “freezing”. The same set of parameters, as well as latent period and time duration of stay, were recorded for the central sector of the arena. Defecations and rearing (animal raise upright on hind limbs) were assessed visually (File and Wardill (1975) Validity of head-dipping as a measure of exploration in a modified hole-board. Psychopharmacol., 44, 53-59). The test is designed to measure the level of motor and exploratory activity.
All substances were injected intraperitoneally in a volume of 10 μl of solution per 1 gram of animal weight 30 minutes prior to behavioral testing.

The subject of data set [3] is Sprague Dawley rats. The settings on record: FQSE 0.5 mg/kg i.n.; diazepam 2 mg/kg IP. Here is the method: The five doses of FQSE (SEQ ID NO:10) (0.01, 0.1, 0.5, 1 and 3 mg/kg, CS, Menlo Park, CA) were prepared fresh for each test day in sterile saline and administered intranasally (i.n.) 30 minutes prior to testing. Fifteen rats per group per peptide dose were tested with the exception that there were twenty rats in the vehicle (0) group. Each dose was administered in a randomized order across rats. Prior to dosing, the rats were lightly anesthetized (till loss of righting reflex) with isoflurane (2.5%, 0.5 L/min oxygen), placed in the recumbent position, then a thin plastic pipette (Fischer Scientific) inserted into the nares and peptide administered at a volume of 15-20 uL per nares. […]
Open field tests occurred in open field apparatus constructed of gray Plexiglas (17″L×17″ W×12″ H (43.2 cm×43.2 cm×30.5 cm; Noldus, Leesburg, VA) with digital cameras positioned above the arenas to detect different measures of activity using specialized software (Ethovision, XT12). Rats were first allowed to acclimate to the testing room for 30 minutes while in their home cage. The test was initiated by placing the animal in the center of the open field chamber and behavior recorded for 30 minutes. The observer was not in the room during testing. Testing was conducted under red-light. Arenas were cleaned thoroughly between subjects with LpH disinfectant. […]

The subject of data set [4] is Wistar rats after chronic unpredictable mild stress. The data set can be described thus: CUMS model: Elevated Plus Maze test. Here is the method: During stress, the animals were placed in individual cells and exposed to stressful conditions each day for 26 days. Two stressors were used daily, applied in the following order: • Day 1. 10 am-6 pm, rats were placed in a cold room for an hour. From 6 PM to 10 am the lights were turned on and off every 2 hours. • Day 2. 10 am-6 pm, cage tilted to 45°. From 6 PM to 10 am water deprivation. • Day 3. 10 am-6 pm, stroboscopic light. From 6 PM to 10 am the light was left on overnight. • Day 4. 10 am-6 pm, wet bedding. From 6 PM to 10 am the animals were put in a small mouse cage. • Day 5. 10 am-6 pm, no bedding. From 6 PM to 10 am the lights were turned on and off every 2 hours. • Day 6. 10 am-6 pm, a new rat was placed in the cage (6-month-old). From 6 PM to 10 am the light was left on overnight. • Day 7. 10 am-6 pm, white noise. From 6 PM to 10 am a stroboscopic light was turned on at night. • Day 8-26. Repetition of previously used stressors in the specified sequence.
Experimental substances were administered daily starting from the 58-59 day of the experiment. The administration took place 30 minutes before the start of behavioral testing. On days when there were no tests, the substances were administered in the morning.
The Elevated Plus Maze test was used to assess the level of anxiety, motor, and exploratory activity of laboratory animals. The apparatus consisted of two closed and two open arms opposite to each other (arm's length 45 cm) with the height of the sides of the closed arm −10 cm. The entire installation was raised on a stand 70 cm above the base. Rats were placed in the center of the maze with their heads facing the open arm. Within 5 minutes the number of exits to open arms and time spent in them, the number of transitions between arms, the time of rest, the duration and number of grooming acts, the number of stretch-attend postures into the open arms of the maze, and the number of rears were recorded. Normally, rodents tend to stay in the dark arms.

Molecules are shown by their SMILES.

`CN1C(=O)CN=C(c2ccccc2)c2cc(Cl)ccc21` [Diazepam]: in data set [1] (diazepam 5 mg/kg, FQSE 10 mg/kg, WDQV 10 mg/kg), the “time spent in the light compartment” value is “increased dramatically”. In addition, in data set [1] (diazepam 10 mg/kg), the “number of transitions between the light and dark compartments” value is on record as “increase”; the “time of the first exit (latent period) to the light chamber” value is recorded as “decrease”. The compound further came in with a total distance in data set [2] (ip 30 min before, FQSE 1 mg/kg) of 2542.2±179.77 cm. The “time the animals spent in the center” value in data set [2] (ip) is “not significantly different”. In data set [2] (ip, FQSE 1 mg/kg), the “number of center entries” value is on record as “not significantly different” and the number of rearings is listed as 10.8±2.1. Moreover, in data set [3], the center zone entries was 54.3±6.2 and the total distance is on record as 5289±263 cm. In addition, the “result obtained in EPM (1 administration)” value in data set [4] (CUMS, FQSE 0.5 mg/kg, Diazepam) is given as “sedative effects”. For the same compound, the “time spent on the open arms” value in data set [4] (Diazepam 0.5 mg/kg i.p., 1 injection, vs stressed animals treated with solvent) is recorded as “increase”. Further, in data set [4] (Diazepam 0.5 mg/kg i.p., vs control group), the freezing time result is recorded as “increase of freezing”.
